In ChEMBL document CHEMBL5338773, “First-in-Class Selective Inhibitors of the Lysine Acetyltransferase KAT8” (J Med Chem, 2023):
Activity calls are given as the source filed them. No cut-off for these calls is given here.

Columns and labels:
HT-29 [1] = test: Antiproliferative activity against human HT-29 cells assessed as cell proliferation inhibition at 10 to 100 uM incubated for 72 hrs by MTT assay; format: functional, cell-based; conditions: dose 10-100 µM
[2] = biological target: Histone deacetylase 3 (Homo sapiens) (UniProt O15379); test: Inhibition of human recombinant KDAC3 using Boc-Lys-(Ac)-AMC as substrate at 50 to 100 uM incubated for 45 mins by fluorescence microplate reader analysis; conditions: dose 50-100 µM
U-251 = test: Antiproliferative activity against human U-251 cells assessed as cell proliferation inhibition at 10 to 100 uM incubated for 72 hrs by MTT assay; format: functional, cell-based; conditions: dose 10-100 µM
[3] = biological target: Histone acetyltransferase p300 (Homo sapiens) (UniProt Q09472); test: Inhibition of recombinant human KAT3B (1287 to 1673 residues) using histone H3 peptide and [3H]-acetyl-coA as substrates at 200 uM incubated for 1 hrs by liquid scintillation counter analysis
AHH-1 = test: Cytotoxicity against human AHH-1 cells assessed as inhibition of cell viability at 25 to 200 uM incubated for 72 hrs by MTT assay; format: toxicity, cell-based; conditions: ahh-1, 72 h, dose 25-200 µM
NCI-H1299 [4] = test: Induction of autophagy in human NCI-H1299 cells stably expressing EGFP-LC3 assessed as increase in EGFP-LC3 puncta formation at 10 to 100 uM incubated for 48 hrs by Fluorescence microscopy; format: functional, cell-based; conditions: dose 10-100 µM
Homo sapiens = species: Homo sapiens; test: Inhibition of human recombinant KDAC8 using Boc-Lys-(Ac)-AMC as substrate at 50 to 100 uM incubated for 45 mins by fluorescence microplate reader analysis; conditions: dose 50-100 µM
NCI-H1299 [5] = test: Induction of autophagy in human NCI-H1299 cells stably expressing EGFP-LC3 assessed as change in LC3-II/LC3-I ratio at 10 to 100 uM incubated for 48 hrs by Western blot analysis; format: functional, cell-based; conditions: dose 10-100 µM
NCI-H1299 [6] = test: Induction of autophagy in human NCI-H1299 cells stably expressing EGFP-LC3 assessed as increase in p62 expression level at 10 to 100 uM incubated for 48 hrs by Western blot analysis; format: functional, cell-based; conditions: dose 10-100 µM
HeLa [7] = test: Induction of cell cycle arrest in human HeLa cells assessed as increase in number of cells at sub-G1 phase with DNA hypodiploid at 100 uM incubated for 72 hrs by PI-staining based flow cytometry (Rvb=2%); format: functional
HCT-116 [8] = test: Downregulation of UCP2 mRNA expression in human HCT-116 cells at 100 uM incubated for 48 hrs by qRT-PCR analysis; format: functional, cell-based
[9] = Thiol reactivity of compound at pH 7.5 buffer at 0.5 mM and measured upto 24 hrs in presence of DTT and BME by HPLC analysis; format: physicochemical; conditions: pH 7.5, 24 h, 500 µM
HT-29 [10] = test: Effect on cell cycle progression in human HT-29 cells assessed as changes in cell cycle stages at 50 to 100 uM incubated for 72 hrs by PI-staining based flow cytometry; format: functional; conditions: dose 50-100 µM
HCT-116 [11] = test: Induction of apoptosis in human HCT-116 cells assessed as slight increase in apoptotic cells at 50 to 100 uM incubated for 72 hrs by Annexin V-FITC staining based flow cytometry; format: functional, cell-based; conditions: dose 50-100 µM
HT-29 [12] = test: Induction of cell cycle arrest in human HT-29 cells assessed as increase in number of cells at sub-G1 phase with DNA hypodiploid at 100 uM incubated for 72 hrs by PI-staining based flow cytometry (Rvb=2%); format: functional
HCT-116 [13] = test: Effect on cell cycle progression in human HCT-116 cells assessed as changes in cell cycle stages at 50 to 100 uM incubated for 72 hrs by PI-staining based flow cytometry; format: functional; conditions: dose 50-100 µM
HeLa [14] = test: Induction of cell cycle arrest in human HeLa cells assessed as increase in number of cells at sub-G1 phase with DNA hypodiploid at 50 uM incubated for 72 hrs by PI-staining based flow cytometry (Rvb=2%); format: functional
[15] = biological target: T1, Histone acetyltransferase KAT8 (Homo sapiens) (UniProt Q9H7Z6); test: Inhibition of human KAT8 in human HT-29 cells assessed as change in KAT8 expression level at 10 to 50 uM incubated for 24 hrs by Western blot analysis; format: cell-based; conditions: dose 10-50 µM
T1 sequence (whole entry): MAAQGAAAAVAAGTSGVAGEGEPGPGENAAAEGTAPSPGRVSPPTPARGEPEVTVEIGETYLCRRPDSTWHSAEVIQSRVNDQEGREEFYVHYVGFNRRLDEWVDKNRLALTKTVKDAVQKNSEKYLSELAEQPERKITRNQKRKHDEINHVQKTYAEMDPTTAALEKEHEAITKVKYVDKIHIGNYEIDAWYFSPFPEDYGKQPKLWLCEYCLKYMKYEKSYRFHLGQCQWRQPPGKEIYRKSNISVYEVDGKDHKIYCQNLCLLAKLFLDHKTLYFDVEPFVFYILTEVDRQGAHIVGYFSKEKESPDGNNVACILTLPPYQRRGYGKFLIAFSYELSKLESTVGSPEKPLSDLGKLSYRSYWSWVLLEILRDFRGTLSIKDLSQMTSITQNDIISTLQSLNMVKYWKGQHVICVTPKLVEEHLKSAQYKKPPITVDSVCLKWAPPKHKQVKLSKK

[16] = biological target: T1, Histone acetyltransferase KAT8 (Homo sapiens); test: Binding affinity to KAT8 in human HT-29 cells assessed as stabilization of enzyme against thermal induced aggregation at 59 degreeC at 100 nM incubated for 4 hrs by Western blot analysis; format: cell-based
[17] = biological target: T1, Histone acetyltransferase KAT8 (Homo sapiens); test: Inhibition of human KAT8 in human HT-29 cells assessed as decrease in histone H4K16 acetylation level at 10 to 50 uM incubated for 24 hrs by Western blot analysis; format: cell-based; conditions: dose 10-50 µM
HeLa [18] = test: Antiproliferative activity against human HeLa cells assessed as cell proliferation inhibition at 10 to 100 uM incubated for 72 hrs by MTT assay; format: functional, cell-based; conditions: dose 10-100 µM
NCI-H1299 [19] = test: Antiproliferative activity against human NCI-H1299 cells assessed as cell proliferation inhibition at 10 to 100 uM incubated for 72 hrs by MTT assay; format: functional, cell-based; conditions: dose 10-100 µM
HCT-116 [20] = test: Induction of cell cycle arrest in human HCT-116 cells assessed as increase in number of cells at sub-G1 phase with DNA hypodiploid at 100 uM incubated for 72 hrs by PI-staining based flow cytometry (Rvb=2%); format: functional
MCF7 = test: Antiproliferative activity against human MCF7 cells assessed as cell proliferation inhibition at 10 to 100 uM incubated for 72 hrs by MTT assay; format: functional, cell-based; conditions: dose 10-100 µM
[21] = biological target: T1, Histone acetyltransferase KAT8 (Homo sapiens); test: Inhibition of human KAT8 in human HT-29 cells assessed as change in histone H3K27 acetylation level by measuring fluorescence intensity in nucleus at 50 uM incubated for 24 hrs by DAPI staining based immunofluorescence analysis; format: cell-based
HeLa [22] = test: Induction of apoptosis in human HeLa cells assessed as slight increase in apoptotic cells at 50 to 100 uM incubated for 72 hrs by Annexin V-FITC staining based flow cytometry; format: functional, cell-based; conditions: dose 50-100 µM
[23] = Cytotoxicity against human primary lung fibroblast assessed as inhibition of cell viability at 25 to 200 uM incubated for 72 hrs by MTT assay; format: toxicity, cell-based; conditions: dose 25-200 µM
A549 = test: Antiproliferative activity against human A549 cells assessed as cell proliferation inhibition at 10 to 100 uM incubated for 72 hrs by MTT assay; format: functional, cell-based; conditions: dose 10-100 µM

Histone deacetylase 3 (Homo sapiens), sequence (O15379 whole entry): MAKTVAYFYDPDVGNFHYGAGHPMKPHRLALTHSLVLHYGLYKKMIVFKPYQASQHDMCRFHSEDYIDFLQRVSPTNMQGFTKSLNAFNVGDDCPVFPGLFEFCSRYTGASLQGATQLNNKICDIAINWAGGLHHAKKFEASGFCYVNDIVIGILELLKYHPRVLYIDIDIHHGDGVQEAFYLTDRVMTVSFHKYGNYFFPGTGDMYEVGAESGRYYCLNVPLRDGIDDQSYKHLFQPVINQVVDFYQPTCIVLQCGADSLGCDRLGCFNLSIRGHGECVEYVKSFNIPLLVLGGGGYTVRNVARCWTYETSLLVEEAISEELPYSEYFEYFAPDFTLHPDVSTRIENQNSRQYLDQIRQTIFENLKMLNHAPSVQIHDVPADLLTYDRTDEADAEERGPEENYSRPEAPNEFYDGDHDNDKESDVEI
Histone acetyltransferase p300 (Homo sapiens), sequence (Q09472 whole entry, the tested form may be a part): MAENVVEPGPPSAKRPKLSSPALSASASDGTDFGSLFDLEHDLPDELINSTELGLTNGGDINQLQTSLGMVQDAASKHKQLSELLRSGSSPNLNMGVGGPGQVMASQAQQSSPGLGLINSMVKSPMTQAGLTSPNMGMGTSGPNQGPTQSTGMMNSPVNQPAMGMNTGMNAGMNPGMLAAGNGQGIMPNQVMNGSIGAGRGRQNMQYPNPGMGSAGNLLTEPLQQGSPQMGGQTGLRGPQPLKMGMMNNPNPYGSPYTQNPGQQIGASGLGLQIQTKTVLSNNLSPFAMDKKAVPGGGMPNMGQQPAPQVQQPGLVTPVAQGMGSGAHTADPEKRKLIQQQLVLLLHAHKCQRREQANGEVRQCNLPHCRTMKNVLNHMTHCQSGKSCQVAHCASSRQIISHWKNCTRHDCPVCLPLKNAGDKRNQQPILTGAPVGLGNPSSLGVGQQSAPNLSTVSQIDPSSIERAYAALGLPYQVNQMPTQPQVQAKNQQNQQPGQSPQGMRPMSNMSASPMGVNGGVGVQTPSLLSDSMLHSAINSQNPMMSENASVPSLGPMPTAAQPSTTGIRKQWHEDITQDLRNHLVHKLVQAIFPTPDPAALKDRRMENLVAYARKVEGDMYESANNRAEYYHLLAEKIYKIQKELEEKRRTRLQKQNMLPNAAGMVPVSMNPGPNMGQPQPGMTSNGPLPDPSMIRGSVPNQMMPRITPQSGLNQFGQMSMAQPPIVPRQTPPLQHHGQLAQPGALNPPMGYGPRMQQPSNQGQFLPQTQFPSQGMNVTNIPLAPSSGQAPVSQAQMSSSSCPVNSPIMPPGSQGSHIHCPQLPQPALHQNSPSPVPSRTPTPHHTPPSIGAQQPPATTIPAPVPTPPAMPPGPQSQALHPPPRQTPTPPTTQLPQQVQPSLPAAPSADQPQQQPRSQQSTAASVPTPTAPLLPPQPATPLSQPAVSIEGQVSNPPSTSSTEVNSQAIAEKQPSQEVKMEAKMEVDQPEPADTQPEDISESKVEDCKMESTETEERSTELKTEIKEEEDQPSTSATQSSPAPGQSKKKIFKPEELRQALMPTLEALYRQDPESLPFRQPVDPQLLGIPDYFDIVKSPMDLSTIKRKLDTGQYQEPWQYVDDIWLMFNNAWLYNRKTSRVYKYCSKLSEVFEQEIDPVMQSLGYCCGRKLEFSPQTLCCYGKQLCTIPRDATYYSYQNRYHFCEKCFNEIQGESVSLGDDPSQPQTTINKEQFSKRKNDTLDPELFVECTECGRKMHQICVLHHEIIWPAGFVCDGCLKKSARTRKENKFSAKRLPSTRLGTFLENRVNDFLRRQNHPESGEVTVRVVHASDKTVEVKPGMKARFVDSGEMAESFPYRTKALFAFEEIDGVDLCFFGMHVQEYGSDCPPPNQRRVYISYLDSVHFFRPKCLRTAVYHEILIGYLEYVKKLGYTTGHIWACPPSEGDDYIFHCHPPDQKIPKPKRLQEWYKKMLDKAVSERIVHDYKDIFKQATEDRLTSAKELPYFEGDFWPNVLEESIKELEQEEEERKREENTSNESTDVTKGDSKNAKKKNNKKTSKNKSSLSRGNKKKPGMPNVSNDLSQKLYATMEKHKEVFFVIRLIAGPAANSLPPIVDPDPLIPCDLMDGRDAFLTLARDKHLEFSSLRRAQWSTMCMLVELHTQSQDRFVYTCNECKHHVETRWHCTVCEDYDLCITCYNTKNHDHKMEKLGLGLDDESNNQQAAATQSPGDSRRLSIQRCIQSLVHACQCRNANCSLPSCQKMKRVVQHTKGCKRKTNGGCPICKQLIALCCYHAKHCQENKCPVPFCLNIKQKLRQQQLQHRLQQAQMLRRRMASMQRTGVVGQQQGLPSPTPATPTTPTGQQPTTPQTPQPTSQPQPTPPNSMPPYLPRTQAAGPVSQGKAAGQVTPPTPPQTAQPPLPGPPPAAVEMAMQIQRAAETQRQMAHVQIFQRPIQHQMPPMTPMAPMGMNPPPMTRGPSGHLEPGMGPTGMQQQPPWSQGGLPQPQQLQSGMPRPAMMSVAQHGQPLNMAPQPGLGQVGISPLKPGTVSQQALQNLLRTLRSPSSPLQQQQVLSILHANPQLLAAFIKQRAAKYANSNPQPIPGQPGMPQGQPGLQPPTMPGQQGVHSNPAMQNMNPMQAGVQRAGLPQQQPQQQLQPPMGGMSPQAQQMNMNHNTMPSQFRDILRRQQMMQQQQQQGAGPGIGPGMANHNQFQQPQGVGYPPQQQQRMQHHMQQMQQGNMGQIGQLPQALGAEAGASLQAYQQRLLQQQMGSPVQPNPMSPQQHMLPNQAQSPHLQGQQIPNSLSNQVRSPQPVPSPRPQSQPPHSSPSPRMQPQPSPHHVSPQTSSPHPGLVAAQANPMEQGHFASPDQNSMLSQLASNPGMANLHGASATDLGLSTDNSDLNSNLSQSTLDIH

| inhibition [2] | inhibition [3] | inhibition (Homo sapiens) | Drug metabolism [9] | inhibition [15] | Activity [16] | inhibition [17] | Compound | Activity (HT-29 [1]) | Activity (U-251) | Activity (AHH-1) | Activity (NCI-H1299 [4]) | Activity (NCI-H1299 [5]) | Activity (NCI-H1299 [6]) | Activity (HeLa [7]) | Activity (HCT-116 [8]) | Activity (HT-29 [10]) | Activity (HCT-116 [11]) | Activity (HT-29 [12]) | Activity (HCT-116 [13]) | Activity (HeLa [14]) | further results |
| --- | --- | --- | --- | --- | --- | --- | --- | --- | --- | --- | --- | --- | --- | --- | --- | --- | --- | --- | --- | --- | --- |
| inactive | inactive | inactive | Not Active | inactive | Active | Active | O=C(O)c1ccc(N2N=C(c3ccccc3)/C(=C/c3ccc[nH]3)C2=O)cc1 | Active | inactive | Non-Toxic | Active | Active | Active | 4% | Active | inactive | Active | 14% | inactive | 2% | Activity (HeLa [18]): Active; Activity (NCI-H1299 [19]): Dose-Dependent Effect; Activity (HCT-116 [20]): 13%; Activity (MCF7): inactive; inhibition [21]: inactive; Activity (HeLa [22]): Active; Activity [23]: Non-Toxic; Activity (A549): Dose-Dependent Effect |
| inactive | inactive | inactive | Not Active | inactive | Active | Active | CC1=NN(c2ccc(C(=O)O)cc2)C(=O)/C1=C\c1ccc[nH]1 | Active | inactive | Non-Toxic | Active | Active | Active | 5% | Active | inactive | Active | 15% | inactive | 2% | Activity (HeLa [18]): Active; Activity (NCI-H1299 [19]): Dose-Dependent Effect; Activity (HCT-116 [20]): 6%; Activity (MCF7): inactive; inhibition [21]: inactive; Activity (HeLa [22]): Active; Activity [23]: Non-Toxic; Activity (A549): Dose-Dependent Effect |
